From ChEMBL document CHEMBL5252536, “Discovery of VU0467485/AZ13713945: An M4 PAM Evaluated as a Preclinical Candidate for the Treatment of Schizophrenia” (ACS Med Chem Lett, 2017)

Key:
Rattus norvegicus = assay: Antipsychotic activity in amphetamine-induced hyperlocomotion activity in rat assessed as reversal of amphetamine-induced hyperlocomotion at 1 to 10 mg/kg, po preincubated for 30 mins followed by amphetamine addition and measured after 60 mins by open field test relative to control; assay type: functional; conditions: dose 1-10 mg/kg, time 90 min, 1.5 h
[1] = Toxicity in rat assessed as effect on autonomical parameters at 56.6 mg/kg, po measured after 6 hrs by Irwin test; assay type: organism-based; conditions: in vivo
CHO [2] = assay: Positive allosteric modulator activity at cynomolgus monkey M4 receptor expressed in CHO cells co-expressing Gqi5 assessed as maximal response to ACh by calcium mobilization assay relative to contol; assay type: cell-based; conditions: Macaca fascicularis, filed as positive allosteric modulator
CHO [3] = assay: Positive allosteric modulator activity at dog M4 receptor expressed in CHO cells co-expressing Gqi5 assessed as maximal response to ACh by calcium mobilization assay relative to contol; assay type: cell-based; conditions: Canis lupus familiaris, filed as positive allosteric modulator
[4] = Genotoxicity in Salmonella typhimurium TA100 by Ames test; assay type: toxicity; conditions: salmonella enterica subsp. enterica serovar typhimurium
[5] = Toxicity in rat assessed as effect on somatomotor parameters at 56.6 mg/kg, po measured after 6 hrs by Irwin test; assay type: organism-based; conditions: in vivo
[6] = Terminal plasma concentration in rat model of amphetamine-induced hyperlocomotion activity at 1 to 10 mg/kg, po measured after 1.5 hrs; assay type: ADME, organism-based; conditions: dose 1-10 mg/kg
[7] = Terminal brain concentration in rat model of amphetamine-induced hyperlocomotion activity at 1 to 10 mg/kg, po measured after 1.5 hrs; assay type: ADME, organism-based; conditions: dose 1-10 mg/kg, read-out: Ct
[8] = Plasma protein binding in cynomolgus monkey assessed as unbound fraction incubated for 4 hrs by LC/MS/MS analysis; assay type: ADME, cell-free, Macaca fascicularis
[9] = Clearance in Cynomolgous monkey plasma at 0.2 mg/kg,iv by LC-MS/MS analysis; conditions: cynomolgus monkey
[10] = Terminal unbound brain concentration in rat model of amphetamine-induced hyperlocomotion activity at 1 to 10 mg/kg, po measured after 1.5 hrs; assay type: ADME, organism-based; conditions: in vivo, dose 1-10 mg/kg
CYP3A4 (printed CYP34A) = CYP3A4 (printed CYP34A) (Homo sapiens, UniProt P08684); assay: Activation of CYP34A in human hepatocyte using midazolam as substrate preincubated for 5 days followed by substrate addition and measured after 1 hr by LC-MS/MS analysis relative to control; assay type: ADME, cell-based; conditions: hepatocytes, probe midazolam, time 121 hrs
[11] = target: T1, Muscarinic acetylcholine receptor M2 (Homo sapiens, UniProt P08172); assay: Positive allosteric modulator activity at human M2 receptor expressed in CHO cells co-expressing Gqi5 assessed as maximal response to ACh by calcium mobilization assay; assay type: cell-based
T1 sequence (P08172 whole entry): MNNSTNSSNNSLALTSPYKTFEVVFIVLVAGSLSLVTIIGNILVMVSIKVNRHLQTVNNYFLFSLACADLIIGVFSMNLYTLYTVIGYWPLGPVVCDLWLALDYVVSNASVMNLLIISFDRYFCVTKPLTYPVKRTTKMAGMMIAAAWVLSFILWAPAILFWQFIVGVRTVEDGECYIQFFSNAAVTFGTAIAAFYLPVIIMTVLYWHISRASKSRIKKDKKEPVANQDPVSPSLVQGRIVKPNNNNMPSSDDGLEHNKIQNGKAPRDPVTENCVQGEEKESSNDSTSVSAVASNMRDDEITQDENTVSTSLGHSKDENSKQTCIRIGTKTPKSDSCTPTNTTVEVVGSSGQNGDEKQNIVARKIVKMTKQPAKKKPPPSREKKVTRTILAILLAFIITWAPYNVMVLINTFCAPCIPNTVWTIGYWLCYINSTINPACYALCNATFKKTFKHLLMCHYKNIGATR

[12] = Apparent permeability across apical to basolateral side in human Caco-2 cells; assay type: ADME, cell-based
[13] = AUC (0 to infinity) in Sprague-Dawley rat at 3 mg/kg,po by LC-MS/MS analysis; assay type: ADME, organism-based; design: dose 3 mg/kg, route po; conditions: in vivo
[14] = Elimination half life in Cynomolgous monkey at 0.2 mg/kg,iv by LC-MS/MS analysis; conditions: cynomolgus monkey, in vivo, read-out: beta t1/2 (converted)
Cytochrome P450 2B6 = target: T2, Cytochrome P450 2B6 (Homo sapiens, UniProt P20813); assay: Activation of CYP2B6 in human hepatocyte using bupropion as substrate preincubated for 5 days followed by substrate addition and measured after 1 hr by LC-MS/MS analysis; assay type: ADME, cell-based
T2 sequence (P20813 whole entry): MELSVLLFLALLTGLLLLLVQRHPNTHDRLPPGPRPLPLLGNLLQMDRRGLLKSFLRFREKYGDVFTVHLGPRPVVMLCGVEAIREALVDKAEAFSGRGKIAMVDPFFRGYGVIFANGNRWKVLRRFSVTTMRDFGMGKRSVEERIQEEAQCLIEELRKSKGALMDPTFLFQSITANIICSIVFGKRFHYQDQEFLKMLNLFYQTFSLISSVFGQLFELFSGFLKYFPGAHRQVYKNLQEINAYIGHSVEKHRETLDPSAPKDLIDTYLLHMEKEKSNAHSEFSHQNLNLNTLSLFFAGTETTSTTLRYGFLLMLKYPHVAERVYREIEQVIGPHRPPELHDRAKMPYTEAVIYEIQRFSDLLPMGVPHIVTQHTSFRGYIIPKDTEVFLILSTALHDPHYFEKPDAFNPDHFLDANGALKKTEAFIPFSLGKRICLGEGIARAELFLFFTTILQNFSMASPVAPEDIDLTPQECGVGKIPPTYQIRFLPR

[15] = Plasma protein binding in rat assessed as unbound fraction incubated for 4 hrs by LC/MS/MS analysis; assay type: ADME, cell-free
[16] = Elimination half life in Beagle dog at 3 mg/kg,po or 1 mg/kg,iv by LC-MS/MS analysis; assay type: ADME, organism-based, Canis lupus familiaris; conditions: in vivo, read-out: beta t1/2 (converted)
Cytochrome P450 1A2 = target: T3, Cytochrome P450 1A2 (Homo sapiens, UniProt P05177); assay: […] of human CYP1A2 mediated drug metabolism incubated for 5 mins followed by NADPH addition measured after 1 hr by LC-UV/MS analysis relative to control; assay type: ADME; conditions: recombinant enzyme, 1.083 h, time 65 min
T3 sequence (P05177 whole entry): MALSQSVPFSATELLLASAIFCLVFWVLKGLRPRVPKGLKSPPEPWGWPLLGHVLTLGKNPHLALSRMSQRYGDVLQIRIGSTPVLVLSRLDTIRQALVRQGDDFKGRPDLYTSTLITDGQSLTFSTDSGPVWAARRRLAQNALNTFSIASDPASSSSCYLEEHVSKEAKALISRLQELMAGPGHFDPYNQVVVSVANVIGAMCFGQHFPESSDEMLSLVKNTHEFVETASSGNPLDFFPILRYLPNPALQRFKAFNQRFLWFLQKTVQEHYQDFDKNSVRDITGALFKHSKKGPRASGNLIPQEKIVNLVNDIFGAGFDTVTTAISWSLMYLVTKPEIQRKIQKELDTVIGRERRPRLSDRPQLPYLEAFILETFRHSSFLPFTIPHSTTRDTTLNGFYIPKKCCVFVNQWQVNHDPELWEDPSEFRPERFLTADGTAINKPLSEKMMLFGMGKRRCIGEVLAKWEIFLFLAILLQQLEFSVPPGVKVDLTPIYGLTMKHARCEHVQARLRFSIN

Sequence of CYP3A4 (printed CYP34A) (P08684 whole entry): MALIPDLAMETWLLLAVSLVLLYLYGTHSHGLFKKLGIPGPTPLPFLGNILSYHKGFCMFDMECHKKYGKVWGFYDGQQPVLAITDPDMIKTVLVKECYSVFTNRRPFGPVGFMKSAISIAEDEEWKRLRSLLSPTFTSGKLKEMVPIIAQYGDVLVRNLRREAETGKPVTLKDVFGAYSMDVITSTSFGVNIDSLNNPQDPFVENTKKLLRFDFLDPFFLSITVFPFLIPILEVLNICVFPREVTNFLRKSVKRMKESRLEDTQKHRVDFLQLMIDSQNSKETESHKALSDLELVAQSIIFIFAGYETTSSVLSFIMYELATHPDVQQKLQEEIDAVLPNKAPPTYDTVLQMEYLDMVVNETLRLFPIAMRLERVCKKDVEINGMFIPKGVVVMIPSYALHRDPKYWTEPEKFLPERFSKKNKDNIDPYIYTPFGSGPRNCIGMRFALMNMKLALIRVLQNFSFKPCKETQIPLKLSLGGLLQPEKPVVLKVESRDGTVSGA

concentration at 1.5 h [6]: 1800 nM
concentration at 1.5 h [7]: 560 nM
fraction unbound at 4 h [8]: 0.091
clearance [9]: 25 mL/min/kg
Drug uptake(free) [10]: 0.02 µM
Emax at 1 h (CYP3A4 (printed CYP34A)): ≤ 1%
EC50 [11]: > 30 µM
Papp A→B [12]: 31 ×10⁻⁶ cm/s
AUC(0-inf) [13]: 3.8 µM·h
half-life [14]: 28.8 min
EC50 (Cytochrome P450 2B6): > 50 µM
fraction unbound at 4 h [15]: 0.031
half-life [16]: 78 min
Activity (Cytochrome P450 1A2): 21.4%
Structure (SMILES): COc1ccc(CNC(=O)c2sc3nnc(C)c(C)c3c2N)cc1F
Activity (Rattus norvegicus): 43.2%
Activity [1]: Non-Toxic
Activity (CHO [2]): 74%
Activity (CHO [3]): 49%
Activity [4]: Non-Toxic
Activity [5]: Non-Toxic
